Experimental data as given in patent publication US10487348B2, “3-alpha-hydroxysteroid dehydrogenase mutants and process for the preparation of ursodeoxycholic acid” (Pharmazell GmbH, priority 2014, dated 2019).
Residue numbers refer to the chain shown, from its start.

Tests used:
[1] = molecular target: T1, Comamonas testosteroni 3α-HSDH dual mutant [L68A/T188A], N-terminal hexahistidine tag (Comamonas testosteroni, UniProt P80702, L68A/T188A)
T1 sequence (P80702 1-257 L68A/T188A): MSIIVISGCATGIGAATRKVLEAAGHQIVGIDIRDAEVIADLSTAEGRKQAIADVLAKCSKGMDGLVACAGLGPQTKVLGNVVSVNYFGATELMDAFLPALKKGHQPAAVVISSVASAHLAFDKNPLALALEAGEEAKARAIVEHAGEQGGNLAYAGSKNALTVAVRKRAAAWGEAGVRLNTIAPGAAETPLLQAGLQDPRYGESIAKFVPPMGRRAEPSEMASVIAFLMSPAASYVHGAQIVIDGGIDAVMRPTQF

[2] = molecular target: T2, Comamonas testosteroni 3α-HSDH mutant [T188S], N-terminal hexahistidine tag (Comamonas testosteroni, UniProt P80702, T188S); test: Kinetics of 3α-HSDH [T188S], N-terminal His tag
T2 sequence (P80702 1-257 T188S): T1 sequence (P80702 1-257 L68A/T188A) with A68L, A188S

[3] = molecular target: T3, Comamonas testosteroni 3α-HSDH mutant [L68A], N-terminal hexahistidine tag (Comamonas testosteroni, UniProt P80702, L68A)
T3 sequence (P80702 1-257 L68A): T1 sequence (P80702 1-257 L68A/T188A) with A188T
Experimental: After cultivation and expression, the proteins were purified by means of Ni-NTA chromatography, the specific activities were determined and their kinetic constants were determined.

[4] = molecular target: T4, Comamonas testosteroni 3α-HSDH, wild type, C-terminal 3×His tag (Comamonas testosteroni, UniProt P80702); test: Michaelis-Menten kinetics of 3α-HSDH with 3×His tag; details: His tag length 3; DHCA 10 μM-10 mM; NADH 0.2 mM; purified
T4 sequence (P80702 with tags, fused parts or gaps): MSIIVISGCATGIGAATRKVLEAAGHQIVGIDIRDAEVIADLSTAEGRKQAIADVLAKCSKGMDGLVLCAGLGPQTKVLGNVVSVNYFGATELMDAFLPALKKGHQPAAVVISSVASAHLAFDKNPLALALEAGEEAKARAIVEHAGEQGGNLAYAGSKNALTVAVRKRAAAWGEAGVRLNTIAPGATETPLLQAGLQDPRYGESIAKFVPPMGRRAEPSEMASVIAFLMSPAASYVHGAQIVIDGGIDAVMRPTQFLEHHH
Excerpt: The His-tag allows for very simple purification of the HSDH protein since this sequence is bound with high specificity by specific chromatographic material (NTA (Ni-nitrilotriacetate)-modified support material, loaded with divalent nickel ions, for example “His Pur Ni-NTA” (Nimagen B. V., Nijmegen, The Netherlands)). To this end, the cell-free crude extract is applied to a dropping column comprising this material, which dropping column has previously been equilibrated with the disruption buffer (3 to 5 column volumes). Weakly binding protein was removed by washing with 3 to 5 column volumes of wash buffer (20 mM imidazole, 50 mM sodium phosphate, 300 mM NaCl, pH 8). […] The process was carried out at room temperature. The imidazole which was present was to be removed by buffer exchange.
Following expression (25° C., 0.5 mM, IPTG, 20 hours), the protein was purified, and the expression and the purification were checked by means of an SDS gel. […] The NADH concentration was 0.2 mM. Purified protein was employed in the measurements.

[5] = molecular target: T5, Comamonas testosteroni 3α-HSDH, wild type, N-terminal hexahistidine tag (Comamonas testosteroni, UniProt P80702); test: Michaelis-Menten kinetics of wild-type 3α-HSDH with N-terminal His tag; format: biochemical; details: Table 14, substrate DHCA, apparent values
T5 sequence (P80702 1-257): T1 sequence (P80702 1-257 L68A/T188A) with A68L, A188T
Excerpt: The His-tag allows for very simple purification of the HSDH protein since this sequence is bound with high specificity by specific chromatographic material (NTA (Ni-nitrilotriacetate)-modified support material, loaded with divalent nickel ions, for example “His Pur Ni-NTA” (Nimagen B. V., Nijmegen, The Netherlands)). To this end, the cell-free crude extract is applied to a dropping column comprising this material, which dropping column has previously been equilibrated with the disruption buffer (3 to 5 column volumes). Weakly binding protein was removed by washing with 3 to 5 column volumes of wash buffer (20 mM imidazole, 50 mM sodium phosphate, 300 mM NaCl, pH 8). The His-tag-3α-HSDH protein was eluted with imidazole-comprising elution buffer (250 mM imidazole, 50 mM sodium phosphate, 300 mM NaCl, pH 8). The process was carried out at room temperature. The imidazole which was present was to be removed by buffer exchange.
The activity of the 3α-HSDH and of the mutants was determined using a photometric assay, where the decrease in absorbance was measured at 340 nm over a period of 30 seconds.
The targeted exchange of amino acid radicals was performed analogously to Example 2B.
Following cultivation and expression, the cells were harvested, and the specific activities of the cell-free crude extracts were determined at substrate concentrations of 10 mM DHCA. […]

[6] = molecular target: T6, Comamonas testosteroni 3α-HSDH dual mutant [L68A/T188S], N-terminal hexahistidine tag (Comamonas testosteroni, UniProt P80702, L68A/T188S)
T6 sequence (P80702 1-257 L68A/T188S): T1 sequence (P80702 1-257 L68A/T188A) with A188S

[7] = Table 14, substrate DHCA, tag N, apparent values
[8] = Table 14, substrate DHCA, tag N, NADH 0.2 mM, apparent values

SMILES: C[C@H](CCC(=O)O)[C@H]1CC[C@H]2[C@@H]3C(=O)C[C@@H]4CC(=O)CC[C@]4(C)[C@H]3CC(=O)[C@]12C [DHCA, dehydrocholic acid]
- kcat [1, 7]: 111.1 s⁻¹
- vmax [1, 7]: 233.5 ± 12.5 U/mg
- remaining activity at 1000 µM ([1]; read-out: residual activity): 85%
- remaining activity at 10000 µM ([1]; read-out: residual activity): > 20%
- kcat [2, 7]: 158.2 s⁻¹
- vmax [2, 7]: 332.5 ± 59.9 U/mg
- remaining activity at 20000 µM ([2]; read-out: residual activity): > 20%
- kcat [3, 8]: 138.0 s⁻¹
- vmax [3, 8]: 290.0 ± 45.4 U/mg
- remaining activity at 1000 µM ([3]; read-out: residual activity): ~15%
- remaining activity at 10000 µM ([3]; read-out: residual activity): ~8%
- kcat [4]: 6.5 ± 2.1 s⁻¹
- vmax [4]: 14.3 ± 4.8 U/mg
- kcat [5]: 47.1 s⁻¹
- vmax [5]: 98.7 ± 4.7 U/mg
- kcat [6, 7]: 91.8 s⁻¹
- vmax [6, 7]: 193.2 ± 11.4 U/mg
- remaining activity at 10000 µM ([6]; read-out: residual activity): ~20%
